Laboratory results taken from patent publication US20230255868A1, “SANITIZING COMPOSITION” (Conopco, Inc., d/b/a UNILEVER, priority 2020, published 2023).

System: Adenovirus
Experiment: ASTM E1052-20 microbicides against viruses in suspension
Assay type: cell-based
Details: 60 Seconds, remaining virus titre, Control 4.75
Protocol: Skin, as used herein, is meant to include skin on the arms (including underarms), face, feet, neck, chest, hands, legs, buttocks and scalp (including hair). Sanitizing as used herein means a bacteria log kill of at least 2 and a viral log inactivation of at least 2 (both achieved) in less than 3 minutes after topical application to a surface. Sanitizing precursor means a composition which is a concentrate and suitable to be diluted (or hydrated) with water to produce a sanitizing composition ready for use. Combination, as used herein means, total weight of cetrimonium chloride plus benzalkonium chloride. Skin benefit agent means an ingredient suitable to improve a skin characteristic. Surface as used herein includes skin or the surface of an inanimate object such as a table top, computer monitor, door knob, toilet seat, shopping cart handle or even a clothing garment. Surface is also meant to include the coat of an animal such as the fur on a dog and cat. As used herein, surface preferably means human skin, and especially, skin on the face and hands. The dimonium and trimonium compounds used herein are meant to include salts of the same, especially chlorides and bromides of the same. Cationic surfactant, as used herein, is meant to include polyquaternium materials, like for example, polyquaternium-6. In an embodiment of the invention, the sanitizing composition of the present invention is a home care composition like a laundry spray composition suitable to spray clothing and upholstery requiring sanitizing. The home care composition can also be a sanitizing kitchen or bathroom spray composition. […] The composition of the present invention may optionally comprise skin benefit agents added thereto such as emollients, vitamins and/or derivatives thereof, resorcinols, retinoic acid precursors, colorants, moisturizers or humectants, fragrances, sunscreens, a mixture thereof or the like. The skin benefit ingredients may be water or oil soluble. The sanitizing composition, therefore, is an aqueous based composition with a pH from 3.0 to 8.2, and the composition is water continuous. Viscosity, as used herein, is taken with a Brookfield RV spindle 6 at 20 rpm for 30 seconds at 25° C. unless noted otherwise. […] Antimicrobial benefits mean at least a log kill of 2 in under 3 minutes whereby antimicrobial assessment is measured via test method ASTM-E2783-11 (Reapproved 2016) which sets forth the procedure for measuring antimicrobial activity for water miscible compounds using a time kill procedure. Viral (or virus) inactivation is determined by assessing the impact of microbiocides against viruses as set forth in ASTM-1052-20. […]

Structure (SMILES): CCCCCCCCCCCCCCCC[N+](C)(C)C.[Br-] [CTAB, cetrimonium bromide]
- ADENOVIRUS Inactivation, Log10 TCID 50/0.1 ml (test substance at 0.05%): 2.5 Log10 TCID 50/0.1 ml
- ADENOVIRUS Inactivation, Log10 TCID 50/0.1 ml (test substance at 0.1%): 1.75 Log10 TCID 50/0.1 ml

Structure (SMILES): CCCCCCCCCCCCCCCC[n+]1ccccc1.[Cl-] [CPC, cetylpyridinum chloride]
- ADENOVIRUS Inactivation, Log10 TCID 50/0.1 ml (test substance at 0.05%): 1.6 Log10 TCID 50/0.1 ml
- ADENOVIRUS Inactivation, Log10 TCID 50/0.1 ml (test substance at 0.1%): 1.6 Log10 TCID 50/0.1 ml
